# Tests used:
# [1] = system: brain-like endothelial cells (BLECs); assay: in vitro; details: control, absence of peptide (0 nM)
# Experimental: The in vitro BBB model, consisting of CD34^+ endothelial cells (ECs) derived from hematopoietic stem cells in co-culture with bovine brain pericytes, was established as described by Cecchelli et al.. Written and informed consent was obtained for the collection of human umbilical cord blood, in compliance with French legislation. […] All experiments were carried out in line with the authorized protocol.
# These isolated CD34+ cells were cultured in EGM-2, supplemented with 20% (v:v) FBS and 50 ng/mL vascular endothelial growth factor on 1% (w:v) gelatine-coated 24-well plates (2 × 10^5 cells/well). After 15–20 days, ECs are seen in the culture dish. For each experiment, the cells were expanded in 1% (w:v) gelatine-coated T75 flasks (BD Biosciences, Le Pont-de-Claix, France) in EGM-2. Bovine brain pericytes were isolated and characterized as described by Vandenhaute et al.. Sub-clones were cultured in Dulbecco’s Modified Eagle’s Medium supplemented with 20% (v:v) FBS, 2 mM L-glutamine, 50 µg/mL gentamycin, and 1 ng/mL basic fibroblast growth factor. At confluency, 5 × 10^4 cells were seeded in ECM-5 with 5% (v:v) FBS, 50 µg/mL gentamycin, and 0.5% endothelial cell growth factor in gelatine-coated 12-well plates (Costar, Corning Inc., New York, NY, USA). CD34^+-derived ECs were seeded at 8 × 10^4 cells per Matrigel-coated (BD Biosciences) insert (3401, Corning Inc., NY, USA) and put in co-culture with the bovine brain pericytes, with the pericytes at the bottom of the well, for 6 days to achieve brain-like endothelial cell (BLEC) characteristics (Figure 4b).
# At the beginning of the permeability experiments, inserts with BLEC monolayers were transferred to new abluminal (receiver) compartments previously filled with 1.5 mL of RH buffer, and 500 µL of the compounds dissolved in RH buffer, with the addition of the paracellular marker sodium fluorescein (NaFlu), were added to the luminal (donor) compartment. After 3 h of incubation at 37 °C, with a shaking velocity of 60 rpm, aliquots were taken from the donor and receiver compartment. The BLEC monolayers were washed twice with cold RH buffer and lysed with RLT Lysis buffer. The samples were kept at −20 °C pending analysis in low-binding tubes.
# An increase in the permeability to NaFlu in the presence of the peptide can indicate an increase in paracellular leakage and consequent loss of barrier integrity. To evaluate the ability of test compounds to cross Matrigel-coated filters without cells and to control for the adsorption to plastics and/or Matrigel, the NaFlu and peptide’s permeability over inserts without cells were also assessed. Mass balance (M.B%) was calculated from the amount of compound recovered in both compartments at the end of the experiment divided by the total amount added to the donor compartment at the start of the experiment.
# Samples from both compartments as well as the lysed endothelial cells were analysed for fluorescence using a Synergy H1 (Biotek) set to quantify NaFlu (wavelengths Excitation 490 nm and Emission 525 nm) and with UPLC-MS/MS to assess the permeability and cellular uptake of the peptides. All experiments were performed in triplicate (n = 3 independent experiments per concentration and cCPPs).
# Papp is the apparent permeability, J is the rate of appearance of the compound in the receiver compartment (amount/sec), and C0 is the concentration in the donor compartment at the start of the experiment (amount/mL).
# dynamin = system: dynamin; design: method as in PMID 16740485, PMID 24491918; details: cited from earlier work
structure (smiles),measurement,setting,value
"O=C([O-])c1ccccc1-c1c2ccc(=O)cc-2oc2cc([O-])ccc12.[Na+].[Na+] [sodium fluorescein, reference compound]","Permeability (Pe) to sodium fluorescein, mean",[1],"0,46 10‐3 cm/min"
"O=C(N/N=C/c1ccc(O)c(O)c1)c1cc2ccccc2cc1O [Dynasore, dynasore]",Decrease in dynamin activity,dynamin; 50 µM,70%
same,IC50,dynamin,15 µM
